Earlier results in patent US20260258132A1, “TREATMENT OF LUNG CANCER WITH ANTI-PD-1 AND CHEMOTHERAPY” (BeOne Medicines I GmbH, priority 2023, published 2026).

System: ES-SCLC
Details: cited from earlier work; for RMST analysis: difference in OS in prior studies: versus placebo plus chemotherapy

Molecule | median OS in the previous study (first-line treatment for ES-SCLC) [months] | OS HR in the previous study (pembrolizumab arm versus placebo arm, 95% CI 0.64-0.98) | RMST analysis: difference in OS in prior studies [month]
pembrolizumab plus chemotherapy: pembrolizumab (humanized IgG4 anti-PD-1 antibody) plus chemotherapy, first-line ES-SCLC, previous study | 10.8 | 0.80 | 1.2
adebrelimab plus chemotherapy: adebrelimab plus chemotherapy, prior study compared by RMST of OS (antibody, chains of the INN, looked up, V domains shown, plus chemotherapy, adebrelimab plus chemotherapy, prior study compared by RMST of OS) VH: QVQLVQSGAEVKKPGASVKVSCKASGYTFTSYWMHWVRQAPGQGLEWMGRIGPNSGFTSYNEKFKNRVTMTRDTSTSTVYMELSSLRSEDTAVYYCARGGSSYDYFDYWGQGTTVTVSS VL: DIVLTQSPASLAVSPGQRATITCRASESVSIHGTHLMHWYQQKPGQPPKLLIYAASNLESGVPARFSGSGSGTDFTLTINPVEAEDTANYYCQQSFEDPLTFGQGTKLEIK |  |  | 2.3
